Patent publication US20210198256A1, “COMPOUNDS FOR THE DEGRADATION OF BRD9 OR MTH1” (C4 Therapeutics, Inc., priority 2018, published 2021)

Target: T1, BRD9 (Homo sapiens, UniProt Q9H8M2)
T1 sequence (Q9H8M2 1-597): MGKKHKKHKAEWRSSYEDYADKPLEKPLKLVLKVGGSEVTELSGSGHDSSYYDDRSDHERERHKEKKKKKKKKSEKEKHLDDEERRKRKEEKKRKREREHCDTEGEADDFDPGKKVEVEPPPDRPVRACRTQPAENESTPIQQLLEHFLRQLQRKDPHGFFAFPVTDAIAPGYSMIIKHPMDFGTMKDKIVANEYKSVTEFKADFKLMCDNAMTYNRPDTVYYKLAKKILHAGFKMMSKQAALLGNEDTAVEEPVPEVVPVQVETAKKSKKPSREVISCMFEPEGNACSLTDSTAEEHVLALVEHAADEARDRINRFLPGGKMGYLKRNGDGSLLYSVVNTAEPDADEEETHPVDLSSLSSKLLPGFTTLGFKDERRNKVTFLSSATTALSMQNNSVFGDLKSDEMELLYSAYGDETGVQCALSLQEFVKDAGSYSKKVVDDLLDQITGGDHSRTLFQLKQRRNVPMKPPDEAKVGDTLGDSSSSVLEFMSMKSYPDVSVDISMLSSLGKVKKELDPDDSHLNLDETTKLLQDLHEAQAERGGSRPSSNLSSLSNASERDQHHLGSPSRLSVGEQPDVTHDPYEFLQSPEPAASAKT
Assay: HiBit Lytic Assay (HiBit DC50, BRD9 degraders of Table 1)
Type: cell-based
Conditions: 11-point half log dose response, NanoLuc signal
Protocol: Example 3. HiBit Lytic Assay
• Compound is made at 10 mM, half log dilution, 11 points. • MDR plates can also be ordered from Frontier with same format. • 1. Barcode a 384LDV plate (384-well Low Dead Volume Microplate, Labcyte LP-0200) (Echo compatible) on the left side. • 2. Transfer 13.6 μL of 10 mM compound into column 1 of LDV plate (Labcyte). • 3. Fill column 2-11 and column 23 of MDR plate with 9.30 μL of DMSO. • 4. Serial dilute 3.16 fold from column 1 to 2 by transferring 4.30 μL from column 1 to column 2, and so on to column 11. *Change tip in every dilution to prevent compound carryover effect! • 5. Seal the plate with Plate Sealer, then store the MDR plate at room temperature for short term storage and in −20° C. for long term storage.
• Cells are treated with 30 nL of each compound at 10 mM, half log dilution, 11 points with final concentration of 1000 nM or 833 nM, half log dilution, 11 points, in duplicates. Final DMSO concentration is 0.1%. • 1. Barcode the plates made on the left side and label the plates with silver marker. • 2. Dispense with the following scheme: • a. 30 nL of compound into corresponding wells in cell plates via Echo550 with “MDR32_HiBiT16_30 nL”. Top concentration will be 1000 nM. • 3. Seal the plate with Plate Sealer.
• Cells are dispensed at density specified in Cell Line Table in 384-well microplate. • 1. Culture cells to between 50-80% of confluence in sterile culture flasks of appropriate size. • 2. For Adherent Cell Lines: • a. Aspirate off growth media in culture flask, and wash off the Phenol Red media with 5 mL of 1×PBS. • b. Add 5 mL of Trypsin to the cells, incubate at 37° C. for 5 minutes. • c. Add 5 mL of growth media to the trypsinzed cells, and resuspend. • 3. Remove 10 μL of cells, and resuspend the cells with 10 μL of Trypan Blue. Insert the solution to counting chamber slide, and count the cells via cell counter. • 4. Adjust the cell concentration to specified plating density, and strain the cells with cell strainer. • 5. Dispense the cells via E1-ClipTip™ Electronic Multichannel Pipettes or Multidrop™ Combi Reagent Dispenser with Standard tube dispensing cassette: • a. Prime the cassette with 10-20 mL of ddH2O. • b. Prime the cassette with 10-20 mL of cells. • c. Dispense the cells at low speed for 30 μL/well in Corning® 384 Well Low Flange Black Flat Bottom Polystyrene TC-Treated Microplate. • d. Wash the cassette with 10-20 mL of ddH2O, follow by 10-20 mL of 70% EtOH, then again with 10-20 mL of ddH2O. • 6. Incubate the plates at 37° C.×compound treatment time.
• 1. If not already, bring Nano-Glo® HiBiT Lytic Buffer to room temperature. • 2. Determine the amount of reagent needed. A volume of reagent equal to the volume of media in the well should be added (i.e. 30 μL of cells will need 30 μL of HiBiT Lytic reagent). • 3. Into a given volume of buffer, dilute the substrate 50-fold and the LgBiT protein 100-fold. For example, to make 10 ml of reagent, add the following: • 10 ml Nano-Glo® HiBiT Lytic Buffer • 200 μl Nano-Glo® HiBiT Lytic Substrate • 100 μl LgBiT Protein • The reagent should be reconstituted immediately before use. However, once reconstituted, it should take about 4 hours for the activity to decrease 10%. • 4. Cool down the cell plate to room temperature for 10-15 minutes without lid. • 5. Dispense the HiBiT Lytic Reagent via E1-ClipTip™ Electronic Multichannel Pipettes or Multidrop™ Combi Reagent Dispenser with Standard tube dispensing cassette: • a. Prime the cassette with 10-20 mL of ddH2O. • b. Prime the cassette with 10-20 mL of CTG 2.0. • c. Dispense the HiBiT Lytic Reagent at medium speed for 30 μL/well in cell plate to column 1-23 (column 24 will be used as plate background). • d. Wash the cassette with 10-20 mL of ddH2O, follow by 10-20 mL of 70% EtOH, then again with 10-20 mL of ddH2O. • 6. Incubate the cell plate at room temperature for 10 minutes without lid. • 7. […]

| DC50 [nM] | SMILES |
| --- | --- |
| < 100 | COc1cc(-c2cn(C)c(=O)c3c2cnn3C)cc(OC)c1CN(C)CC(=O)NCCCCCCCCNc1cccc2c1C(=O)N(C1CCC(=O)NC1=O)C2=O (stereo not drawn) [Compound 200, 2-[[4-(1,6-dimethyl-7-oxo-pyrazolo[3,4-c]pyridin-4-yl)-2,6-dimethoxy-phenyl]methyl-methyl-amino]-N-[8-[[2-(2,6-dioxo-3-piperidyl)-1,3-dioxo-isoindolin-4-yl]amino]octyl]acetamide] |
| < 100 | COc1cc(-c2cn(C)c(=O)c3[nH]ncc23)cc(OC)c1CN(C)CC(=O)NCCCCCCCCNc1cccc2c1C(=O)N(C1CCC(=O)NC1=O)C2=O (stereo not drawn) [Compound 201, 2-[[2,6-dimethoxy-4-(6-methyl-7-oxo-1H-pyrazolo[3,4-c]pyridin-4-yl)phenyl]methyl-methyl-amino]-N-[8-[[2-(2,6-dioxo-3-piperidyl)-1,3-dioxo-isoindolin-4-yl]amino]octyl]acetamide] |
| < 100 | COc1cc(-c2cn(C)c(=O)c3[nH]ncc23)cc(OC)c1CNCC(=O)NCCCCCCCCCc1ccc2c(c1)C(=O)N(C1CCC(=O)NC1=O)C2=O (stereo not drawn) [Compound 202, 2-[[2,6-dimethoxy-4-(6-methyl-7-oxo-1H-pyrazolo[3,4-c]pyridin-4-yl)phenyl]methylamino]-N-[9-[2-(2,6-dioxo-3-piperidyl)-1,3-dioxo-isoindolin-5-yl]nonyl]acetamide] |
| < 100 | COc1cc(-c2cn(C)c(=O)c3[nH]ncc23)cc(OC)c1CNCC(=O)NCCCCCCCCCc1cccc2c1C(=O)N(C1CCC(=O)NC1=O)C2=O (stereo not drawn) [Compound 204, 2-[[2,6-dimethoxy-4-(6-methyl-7-oxo-1H-pyrazolo[3,4-c]pyridin-4-yl)phenyl]methylamino]-N-[9-[2-(2,6-dioxo-3-piperidyl)-1,3-dioxo-isoindolin-4-yl]nonyl]acetamide] |
| < 100 | COc1cc(-c2cn(C)c(=O)c3c2cnn3C)cc(OC)c1CNCC(=O)NCCCCCCCCCc1ccc2c(c1)C(=O)N(C1CCC(=O)NC1=O)C2=O (stereo not drawn) [Compound 206] |
| < 100 | COc1cc(-c2cn(C)c(=O)c3[nH]ncc23)cc(OC)c1CNCC(=O)NCCCCCNC(=O)CCc1ccc2c(c1)C(=O)N(C1CCC(=O)NC1=O)C2=O (stereo not drawn) [Compound 207, N-[5-[[2-[[2,6-dimethoxy-4-(6-methyl-7-oxo-1H-pyrazolo[3,4-c]pyridin-4 yl)phenyl]methylamino]acetyl]amino]pentyl]-3-[2-(2,6-dioxo-3-piperidyl)-1,3-dioxo-isoindolin-5-yl]propanamide] |
| < 100 | COc1cc(-c2cn(C)c(=O)c3c2cnn3C)cc(OC)c1CNCC(=O)NCCCCCCCCCc1cccc2c1C(=O)N(C1CCC(=O)NC1=O)C2=O (stereo not drawn) [Compound 208, 2-[[4-(1,6-dimethyl-7-oxo-pyrazolo[3,4-c]pyridin-4-yl)-2,6-dimethoxy-phenyl]methylamino]-N-[9-[2-(2,6-dioxo-3-piperidyl)-1,3-dioxo-isoindolin-4-yl]nonyl]acetamide] |
| < 100 | COc1cc(-c2cn(C)c(=O)c3c2ccn3C)cc(OC)c1CN(C)CC(=O)NCCCCCCCCNc1cccc2c1C(=O)N(C1CCC(=O)NC1=O)C2=O (stereo not drawn) [Compound 209, 2-[[4-(1,6-dimethyl-7-oxo-pyrrolo[2,3-c]pyridin-4-yl)-2,6-dimethoxy-phenyl]methyl-methyl-amino]-N-[8-[[2-(2,6-dioxo-3-piperidyl)-1,3-dioxo-isoindolin-4-yl]amino]octyl]acetamide] |
| < 1000 | COc1cc(-c2cn(C)c(=O)c3c2ccn3C)cc(OC)c1CN(C)CC(=O)NCCCCCCCCNC(=O)c1ccc(=O)n(C2CCC(=O)NC2=O)c1 (stereo not drawn) [Compound 218, N-[8-[[2-[[4-(1,6-dimethyl-7-oxo-pyrrolo[2,3-c]pyridin-4-yl)-2,6-dimethoxy-phenyl]methyl-methyl-amino]acetyl]amino]octyl]-1-(2,6-dioxo-3-piperidyl)-6-oxo-pyridine-3-carboxamide] |
| < 100 | COc1cc(-c2cn(C)c(=O)c3c2ccn3C)cc(OC)c1CN(C)CC(=O)NCCCCCCCCNc1cccc2c1CN(C1CCC(=O)NC1=O)C2=O (stereo not drawn) [Compound 220, 2-[[4-(1,6-dimethyl-7-oxo-pyrrolo[2,3-c]pyridin-4-yl)-2,6-dimethoxy-phenyl]methyl-methyl-amino]-N-[8-[[2-(2,6-dioxo-3-piperidyl)-1-oxo-isoindolin-4-yl]amino]octyl]acetamide] |
| < 100 | COc1cc(-c2cn(C)c(=O)c3cnccc23)cc(OC)c1CNCC(=O)NCCCCCCCCNc1cccc2c1C(=O)N(C1CCC(=O)NC1=O)C2=O (stereo not drawn) [Compound 221, 2-[[2,6-dimethoxy-4-(2-methyl-1-oxo-2,7-naphthyridin-4-yl)phenyl]methylamino]-N-[8-[[2-(2,6-dioxo-3-piperidyl)-1,3-dioxo-isoindolin-4-yl]amino]octyl]acetamide] |
| < 100 | COc1cc(-c2cn(C)c(=O)c3cnccc23)cc(F)c1CN(C)CC(=O)NCCCCCCCCNc1cccc2c1C(=O)N(C1CCC(=O)NC1=O)C2=O (stereo not drawn) [Compound 222, N-[8-[[2-(2,6-dioxo-3-piperidyl)-1,3-dioxo-isoindolin-4-yl]amino]octyl]-2-[[2-fluoro-6-methoxy-4-(2-methyl-1-oxo-2,7-naphthyridin-4-yl)phenyl]methyl-methyl-amino]acetamide] |
| < 100 | COc1cc(-c2cn(C)c(=O)c3cnccc23)cc(OC)c1COCC(=O)NCCCCCCCCNc1cccc2c1C(=O)N(C1CCC(=O)NC1=O)C2=O (stereo not drawn) [Compound 223, 2-[[2,6-dimethoxy-4-(2-methyl-1-oxo-2,7-naphthyridin-4-yl)phenyl]methoxy]-N-[8-[[2-(2,6-dioxo-3-piperidyl)-1,3-dioxo-isoindolin-4-yl]amino]octyl]acetamide] |
| < 100 | COc1cc(-c2cn(C)c(=O)c3cnccc23)cc(OC)c1C(C)N(C)CC(=O)NCCCCCCCCNc1cccc2c1C(=O)N(C1CCC(=O)NC1=O)C2=O (stereo not drawn) [Compound 224, 2-[1-[2,6-dimethoxy-4-(2-methyl-1-oxo-2,7-naphthyridin-4-yl)phenyl]ethyl-methyl-amino]-N-[8-[[2-(2,6-dioxo-3-piperidyl)-1,3-dioxo-isoindolin-4-yl]amino]octyl]acetamide] |
| < 100 | COc1cc(-c2cn(C)c(=O)c(C)n2)cc(OC)c1CN(C)CC(=O)NCCCCCCCCNc1cccc2c1C(=O)N(C1CCC(=O)NC1=O)C2=O (stereo not drawn) [Compound 225, 2-((4-(4,6-dimethyl-5-oxo-4,5-dihydropyrazin-2-yl)-2,6-dimethoxybenzyl)(methyl)amino)-N-(8-((2-(2,6-dioxopiperidin-3-yl)-1,3-dioxoisoindolin-4-yl)amino)octyl)acetamide] |
